{"source": "patent US8888736B2", "about": "“High shear application in medical therapy” (H R D Corporation, priority 2010, dated 2014)", "origin": "cited, not measured here", "key": {"[1]": {"conditions": "believed to average around"}}, "note": "Read-outs that look alike come from different tables or passages of the source.", "data": [{"smiles": "CCCl", "note": "[chloroethane]", "values": [{"measurement": "solubility", "setting": "water at 20° C.", "value": 0.0078, "unit": "mol/L"}]}, {"smiles": "C1CC1", "note": "[cyclopropane]", "values": [{"measurement": "solubility", "setting": "in water at 21° C.", "value": 537, "unit": "ppm"}]}, {"smiles": "C=COC=C", "note": "[divinyl ether]", "values": [{"measurement": "solubility", "setting": "water at 37° C.", "value": 0.0749, "unit": "mol/L"}]}, {"smiles": "CCCl", "note": "[ethylchloride]", "values": [{"measurement": "solubility", "setting": "in water at 21° C.", "value": 0.678, "unit": "% by weight"}]}, {"smiles": "C=C", "note": "[ethylene]", "values": [{"measurement": "solubility", "setting": "water at 20° C.", "value": 0.015, "unit": "g/100 ml"}]}, {"smiles": "S", "note": "[hydrogen sulfide]", "values": [{"measurement": "toxic level in the body", "setting": "[1]", "value": "300-350 ppm"}]}, {"smiles": "ClC=C(Cl)Cl", "note": "[trichloroethylene]", "values": [{"measurement": "solubility", "setting": "water at 20° C.", "value": 0.1, "unit": "g/100 ml"}]}]}
